The assay concerns the target T1, glucokinase (GK) enzyme (Homo sapiens, UniProt P35557).
T1 sequence (P35557 1-465): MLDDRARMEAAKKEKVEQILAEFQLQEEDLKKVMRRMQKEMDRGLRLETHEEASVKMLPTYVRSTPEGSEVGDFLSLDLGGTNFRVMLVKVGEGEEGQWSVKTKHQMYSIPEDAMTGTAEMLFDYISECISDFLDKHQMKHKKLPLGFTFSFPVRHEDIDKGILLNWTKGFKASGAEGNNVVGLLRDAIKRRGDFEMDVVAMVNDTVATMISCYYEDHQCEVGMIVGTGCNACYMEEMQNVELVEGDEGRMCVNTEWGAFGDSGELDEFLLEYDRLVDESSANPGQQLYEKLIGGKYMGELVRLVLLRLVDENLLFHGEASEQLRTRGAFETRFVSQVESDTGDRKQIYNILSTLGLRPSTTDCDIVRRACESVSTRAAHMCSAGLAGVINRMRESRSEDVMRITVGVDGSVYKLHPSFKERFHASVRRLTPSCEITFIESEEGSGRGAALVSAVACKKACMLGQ
Description: In-vitro glucokinase (GK) activation assay (coupled with glucose-6-phosphate dehydrogenase, absorbance at 340). Format: biochemical. Conditions: glucose 2.5 mM, read-out: % of GK activity wrt DMSO; for activity at 0.1 µM: 0.1 uM compound; for activity at 1 µM: 1 uM compound; for activity at 5 µM: 5 uM compound; for activity at 10 µM: 10 uM compound. As for the experimental part:
The compound of the invention was incubated with glucokinase (GK) enzyme (0.2 units) for 10 minutes in assay buffer at 26° C. After incubation, addition of glucose-6-phosphate dehydrogenase (2.5 units), ATP (1 mM) and glucose (2.5 mM). Absorbance is measured at 340 nm for 15 minutes with 10 second interval using UV transparent plate in kinetic mode on Spectramax-190 at 30° C.

The structures appear in SMILES notation.

In the case of `CCOC(=O)c1cnc(NC(=O)c2cc(Oc3ccc(-c4nnc(C)o4)cc3)cc(OC3CCN(C)C3=O)c2)s1` (centres unmarked) [Example 25, Ethyl 2-(3-(4-(5-methyl-1,3,4-oxadiazol-2-yl)phenoxy)-5-((1-methyl-2-oxopyrrolidin-3-yl)oxy)benzamido)thiazole-5-carboxylate], the activity at 0.1 µM was 125%, the activity at 1 µM was 149%, the activity at 5 µM was determined as 203% and the activity at 10 µM was 208%.
For `CCOC(=O)c1csc(NC(=O)c2cc(Oc3ccc(-c4nnc(C)o4)cc3)cc(OC3CCN(C)C3=O)c2)n1` (centres unmarked) [Example 26, Ethyl 2-(3-(4-(5-methyl-1,3,4-oxadiazol-2-yl)phenoxy)-5-((1-methyl-2-oxopyrrolidin-3-yl)oxy)benzamido)thiazole-4-carboxylate] the same measures were 109%, 205%, 339% and 357%.
For `CCc1nnc(-c2ccc(Oc3cc(OC4CCN(C)C4=O)cc(C(=O)Nc4nc(C)cs4)c3)cc2)o1` (centres unmarked) [Example 27, 3-(4-(5-Ethyl-1,3,4-oxadiazol-2-yl)phenoxy)-5-((1-methyl-2-oxopyrrolidin-3-yl)oxy)-N-(4-methylthiazol-2-yl)benzamide] the same measures were 177%, 262%, 355% and 365%.
Taken in the same sequence, the figures for `CC(C)Cc1nnc(-c2ccc(Oc3cc(OC4CCN(C)C4=O)cc(C(=O)Nc4nccs4)c3)cc2)o1` (centres unmarked) [Example 28, 3-(4-(5-Isobutyl-1,3,4-oxadiazol-2-yl)phenoxy)-5-((1-methyl-2-oxopyrrolidin-3-yl)oxy)-N-(thiazol-2-yl)benzamide] were 131%, 248%, 336% and 338%.
Regarding `CCc1nnc(-c2ccc(Oc3cc(OC4CCN(C)C4=O)cc(C(=O)Nc4nccs4)c3)cc2)o1` (centres unmarked) [Example 29, 3-(4-(5-Ethyl-1,3,4-oxadiazol-2-yl)phenoxy)-5-((1-methyl-2-oxopyrrolidin-3-yl)oxy)-N-(thiazol-2-yl)benzamide], the activity at 0.1 µM turned out to be 167%, the activity at 1 µM is 268%, the activity at 5 µM was determined as 335% and the activity at 10 µM is 347%.
Taken in the same sequence, the figures for `Cc1csc(NC(=O)c2cc(Oc3ccc(-c4nnc(CC(C)C)o4)cc3)cc(OC3CCN(C)C3=O)c2)n1` (centres unmarked) [Example 30, 3-(4-(5-Isobutyl-1,3,4-oxadiazol-2-yl)phenoxy)-5-((1-methyl-2-oxopyrrolidin-3-yl)oxy)-N-(4-methylthiazol-2-yl)benzamide] were 126%, 249%, 370% and 386%.
In the case of `Cc1csc(NC(=O)c2cc(Oc3ccc(-c4nnc(-c5ccccc5)o4)cc3)cc(OC3CCN(C)C3=O)c2)n1` (centres unmarked) [Example 31, 3-((1-Methyl-2-oxopyrrolidin-3-yl)oxy)-N-(4-methylthiazol-2-yl)-5-(4-(5-phenyl-1,3,4-oxadiazol-2-yl)phenoxy)benzamide], the activity at 0.1 µM came out at 146%, the activity at 1 µM came out at 295%, the activity at 5 µM worked out at 356% and the activity at 10 µM worked out at 343%.
Taken in the same sequence, the figures for `CN1CCC(Oc2cc(Oc3ccc(-c4nnc(C5CC5)o4)cc3)cc(C(=O)Nc3nccs3)c2)C1=O` (centres unmarked) [Example 32, 3-(4-(5-Cyclopropyl-1,3,4-oxadiazol-2-yl)phenoxy)-5-((1-methyl-2-oxopyrrolidin-3-yl)oxy)-N-(thiazol-2-yl)benzamide] were 187%, 304%, 366% and 382%.

Source of the values: patent US8835469B2 (Cadila Healthcare Limited, priority 2009, dated 2014).
